The subject of this experiment is streptozotocin-induced diabetic model. Put plainly: Test Example 3: sucrose loading in streptozotocin-induced diabetic model, plasma glucose (GLU). It is filed as in vivo, rat. Conditions: STZ rats; for GLU concentration before loading: Day 23, after oral once a day for 9 days, plasma glucose; for GLU concentration before loading / GLU concentration after loading / Rate of Change (GLU concentration after loading relative to before loading): metformin 50 mg/kg, voglibose 0.2 mg/kg, fenofibrate 50 mg/kg; for GLU concentration after loading: Day 24, 60 minutes after sucrose 2.5 g/kg oral given immediately after test article; for blood sugar level change by the sucrose loading (in words) / Rate of Change (GLU concentration after loading relative to before loading): sucrose loading 2.5 g/kg; for blood sugar level change by the sucrose loading (in words): STZ-treated control increased about 20%. The method, then:
At 13 days after administration (Day 13), blood was collected from the rats, and plasma glucose (GLU) concentration was measured. […] From Day 14 (14 days after STZ administration), test articles shown in Table 1 were orally administered to the rats once a day for 9 days. At 23 days after STZ administration (Day 23), the GLU concentration was measured (previous value: GLU concentration before sucrose loading) (incidentally, the test articles were not administered on Day 23). […] Moreover, “N” represents the number of rats for determining the GLU concentration in the Table.

For `CC(C)OC(=O)C(C)(C)Oc1ccc(C(=O)c2ccc(Cl)cc2)cc1` [Fenofibrate], the “GLU concentration before loading” value stood at 4.26 ± 0.55 g/L and the “GLU concentration after loading” value was 4.78 ± 0.34 g/L.

For `CN(C)C(=N)N=C(N)N` [Metformin], the “GLU concentration before loading” value is 4.57 ± 0.36 g/L, the “GLU concentration after loading” value is recorded as 5.41 ± 0.38 g/L, the “blood sugar level change by the sucrose loading (in words)” value is recorded as “increased” and the “Rate of Change (GLU concentration after loading relative to before loading)” value is 118.4%.

On to `OCC(CO)N[C@H]1C[C@](O)(CO)[C@@H](O)[C@H](O)[C@H]1O` [Voglibose], for which the “GLU concentration before loading” value is on record as 4.30 ± 0.47 g/L, the “GLU concentration after loading” value was determined as 4.50 ± 0.42 g/L, the “blood sugar level change by the sucrose loading (in words)” value is reported as “inhibited” and the “Rate of Change (GLU concentration after loading relative to before loading)” value is recorded as 104.7%.

For the origin of these results see patent US20070197602A1, “Combined pharmaceutical composition” (priority 2004, published 2007).
